Values quoted from earlier work in patent US20020037899A1, “Compositions containing an inhibitor of dihydrofolate reductase and a folate” (priority 2000, published 2002).

How the values were obtained:
[1] = system: rheumatoid arthritis patients receiving methotrexate; details: for reduction in mucosal and gastrointestinal side effect: folic acid or folinic acid administered to rheumatoid arthritis patients receiving methotrexate
[2] = not given; remark: listed apart in the source

Row | SMILES | reduction in mucosal and gastrointestinal side effect [1] [%] | effect on disease symptoms such as painful joints ([1]; high dosages of folinic acid, rheumatoid arthritis patients receiving methotrexate) | solubility in water [mg per ml] | stable to heating at temperatures [2]
1 | Nc1nc(=O)c2c([nH]1)NCC(CNc1ccc(C(=O)N[C@@H](CCC(=O)O)C(=O)O)cc1)N2C=O (mixture of isomers) [folinic acid] | 79 | increase in disease symptoms |  | 
2 | Nc1nc2ncc(CNc3ccc(C(=O)N[C@@H](CCC(=O)O)C(=O)O)cc3)nc2c(=O)[nH]1 [folic acid] | 79 |  | 1.6 | below 200 °C
